Like-named read-outs stand apart in the source and are kept apart here.
How the values were obtained:
[1] = test system: HDAC activity (Mouse Liver Extract); test: Histone Deacetylase (HDAC) Inhibition Assay using Boc-Lys (Ac)-AMC Substrate; assay type: biochemical; conditions: mouse liver enzyme; for HDAC Inhibition 1 μM: inhibitor at 1 μM; for HDAC Inhibition 1 μM / HDAC Inhibition 10 μM: in % (unit assumed); for HDAC Inhibition 10 μM: inhibitor at 10 μM
Procedure: Histone Deacetylase (HDAC) Inhibition Assay using Boc-Lys (Ac)-AMC Substrate: Inhibition of HDAC has been implicated to modulate transcription and to induce apoptosis or differentiation in cancer cells. The fluorometric assay provides a fast and fluorescence based method that eliminates radioactivity, extractions or chromatography, as used in traditional assays. The assay based on two steps. First, the HDAC fluorometric substrate, which comprises an acetylated lysine side chain, is incubated with a sample containing HDAC activity (Mouse Liver Extract). Deacetylation of the substrate sensitizes the substrate, in the second step; treatment with the Trypsin stop solution produces a fluorophore that can be easily analyzed using fluorescence plate reader.
Assay was done in 96 well black microplate and total volume of the assay is 100 ul. Mouse liver enzyme is diluted 1:6 with HDAC buffer. Enzyme cocktail made of 10 ul of diluted enzyme and 30 ul of HDAC buffer. 40 ul of enzyme cocktail dispensed into each well. 10 ul of different concentrations of inhibitor added in to each well, except enzyme control well. Preincubated the plate at 30° C. for 5 minutes. The HDAC reaction is started by adding 50 ul of HDAC substrate (Boc-Lys (Ac)-AMC Substrate) solution. Incubated the plate at 30° C. for 30 minutes. Adding 100 ul of Trypsin stop solution stops the reaction. The plate is incubated again at 30° C. for 20-30 minutes. The release of AMC is monitored by measuring the fluorescence at excitation wavelength of 365 or 360 nm and emission wavelength of 440 or 460 nm. Buffer and substrate alone kept for blank subtraction. (Dennis Wegener et al, Anal. Biochem, 321, 2003, 202-208).

[2] = test system: NCIH460, HCT116, MDAMB231/U251; test: Anti-cancer screen, mean GI50 over the cell lines; assay type: cell-based; conditions: mean over the three cell lines; no unit in table
Procedure: (§1) Experimental drugs are screened for anti-cancer activity in three cell lines for their GI50, TGI and LC50 values (using five concentrations for each compound). The cell lines are maintained in DMEM containing 10% fetal bovine serum. 96 well micro titer plates are inoculated with cells in 100 μL for 24 h at 37° C., 5% CO2, 95% air and 100% relative humidity. 5000 HCT 116 cells/well, 5000 NCIH 460 cells/well and 5000 U251 cells/well are plated. A separate plate with these cell lines is also inoculated to determine cell viability before the addition of the compounds (T0) (See Table I).
(§2) Following 24-hour incubation, experimental drugs are added to the 96 well plates. Each plate contains one of the above cell lines and the following in triplicate: five different concentrations (0.01, 0.1, 1, 10 and 100 μM) of four different compounds, appropriate dilutions of a cytotoxic standard and control (untreated) wells. Compounds are dissolved in DMSO to make 20 mM stock solutions on the day of drug addition and frozen at −20° C. Serial dilutions of these 20 mM stock solutions are made in complete growth medium such that 100 μL of these drug solutions in medium, of final concentrations equaling 0.01, 0.1, 1, 10 and 100 μM can be added to the cells in triplicate. […] (See Table I).
(§3) For T0 measurement, 24 hours after seeding the cells, 10 μL of 3-(4,5-Dimethyl-2-thiazolyl)-2,5-diphenyl-2H-tetrazolium (MTT) solution per well is added and incubation carried out for 3 hours at 37° C., 5% CO2, 95% air and 100% relative humidity, protected from light. Cells incubated with compounds for 48 hours are treated similarly except with the addition of 20 μL MTT solution per well and a subsequent incubation under the same conditions. After 3 hours of MTT incubation, well contents are aspirated carefully followed by addition of 150 μL DMSO per well. Plates are agitated to ensure solution of the formazan crystals in DMSO and absorbance read at 570 nm. (See Table I).
Percent growth is calculated for each compound's concentration relative to the control and zero measurement wells (T0; viability right before compound addition). […]

NCIH 460 cells = test: cells; conditions: for GI50: read-out: NCIH460 GI50; for CC50: read-out: NCIH460 LC50
Procedure: as §1, §2, §3
(§4) Percent growth is calculated for each compound's concentration relative to the control and zero measurement wells (T0; viability right before compound addition).
(§5) If a test well's O.D. value is lower than the T0 measurement for that cell line, then, % Growth=(test−zero)/zero×100

MDAMB231/U251 [3] = test: cells; conditions: 48 h; for GI50: read-out: MDAMB231/U251 GI50
Procedure: as §1, §2, §3, §4, §5

HCT 116 cells = test: cells; conditions: for GI50: read-out: HCT116 GI50; for CC50: read-out: HCT116 LC50
Procedure: as §1, §2, §3, §4, §5

MDAMB231/U251 [4] = test: cells; conditions: 48 h, read-out: MDAMB231/U251 LC50
[5] = NCIH460, MTT, 48 h, tested at 0.01-100 μM, no unit in table
[6] = MDAMB231/U251, MTT, tested at 0.01-100 μM, no unit in table
[7] = HCT116, MTT, 48 h, tested at 0.01-100 μM, no unit in table

Structure (SMILES) | HDAC Inhibition 1 μM [1] | HDAC Inhibition 10 μM [1] | IC50 [1] [µM] | GI50 [2] [µM] | GI50 (NCIH 460 cells; Homo sapiens, NCI-H460, 48 h) [µM] | CC50 (NCIH 460 cells; Homo sapiens, NCI-H460, 48 h) [µM] | GI50 (MDAMB231/U251 [3]) [µM] | GI50 (HCT 116 cells; Homo sapiens, HCT-116, 48 h) [µM] | CC50 (HCT 116 cells; Homo sapiens, HCT-116, 48 h) [µM] | CC50 (MDAMB231/U251 [4]) [µM] | NCIH460 TGI (NCIH 460 cells; [5]) | GI50 (NCIH 460 cells; [5]) [µM] | CC50 (NCIH 460 cells; [5]) [µM] | MDAMB231/U251 TGI (MDAMB231/U251 [3]; [6]) | GI50 (MDAMB231/U251 [3]; [6]) [µM] | CC50 (MDAMB231/U251 [3]; read-out: MDAMB231/U251 LC50, MDAMB231/U251, MTT, tested at 0.01-100 μM, no unit in table) [µM] | HCT116 TGI (HCT 116 cells; [7]) | GI50 (HCT 116 cells; [7]) [µM] | CC50 (HCT 116 cells; [7]) [µM]
COc1cc(/C=C(\C(=O)NCCCCCC(=O)NO)c2ccc(F)cc2)cc(OC)c1 [Example 1, (2Z)-3-(3,5-Dimethoxyphenyl)-2-(4-fluorophenyl)-N-[6-(hydroxyamino)-6-oxohexyl]acrylamide] | 53.76 | 66.42 | 0.22 | 2.6 | > 100 | > 100 | 0.1 | 5 | 70 | 75 | – | – | – | – | – | – | – | – | –
COc1cc(/C=C(\C(=O)NCCCCCC(=O)Nc2ccccc2O)c2ccc(F)cc2)cc(OC)c1 [Example 2] | 7.73 | 10.46 | – | 29 | 27 | 56 | 30 | 30 | 73 | > 100 | – | – | – | – | – | – | – | – | –
COc1cc(/C=C(\C(=O)NCCCCCC(=O)Nc2cccc(O)c2)c2ccc(F)cc2)cc(OC)c1 [Example 3] | −6.41 | −6.45 | – | 54.3 | 50 | > 100 | 73 | 40 | > 100 | > 100 | – | – | – | – | – | – | – | – | –
COc1cc(/C=C(\C(=O)NCCCCCC(=O)Nc2ccccc2N)c2ccc(O)cc2)cc(OC)c1 [Example 4] | 16.9 | 24 | – | 36 | 45 | > 100 | 55 | 9.4 | 80 | > 100 | – | – | – | – | – | – | – | – | –
COc1cc(/C=C(\C(=O)NCCCCCC(=O)Nc2ccccc2O)c2ccc(O)cc2)cc(OC)c1 [Example 5] | 19.6 | 35.3 | – | 50 | 50 | 100 | 65 | 35 | 90 | 92 | – | – | – | – | – | – | – | – | –
COc1cc(/C=C(\C(=O)NCCCCCC(=O)Nc2ccccc2O)c2ccc(O)cc2)cc(OC)c1OC [Example 6] | 15.9 | 36.1 | – | 47 | 44 | 85 | 60 | 38 | 91 | > 100 | – | – | – | – | – | – | – | – | –
O=C(CCCCCNC(=O)/C(=C\c1cc(F)cc(F)c1F)c1ccc([N+](=O)[O-])cc1)NO [Example 27, (2Z)-3-(2,3,5-Trifluorophenyl)-2-(4-nitrophenyl)-N-[6-(hydroxyamino)-6-oxohexyl]acrylamide] | – | – | – | 14.8 | 30 | 96 | 7.5 | 7 | > 100 | 82 | – | – | – | – | – | – | – | – | –
COc1ccc(/C=C(\C(=O)NCCCCCC(=O)NO)c2ccccc2)cc1 [Example 29, (2Z)-3-(4-Methoxyphenyl)-2-(phenyl)-N-[6-(hydroxyamino)-6-oxohexyl]acrylamide] | – | – | – | 13 | 28 | 89 | 6 | 5 | 78 | 90 | – | – | – | – | – | – | – | – | –
O=C(CCCCCNC(=O)/C(=C\c1ccc(F)c(F)c1)c1ccc(F)cc1)Nc1nccs1 [Example 36] | – | – | – | 1.1 | 2 | > 100 | 0.2 | > 100 | > 100 | > 100 | – | – | – | – | – | – | – | – | –
Cc1cc(/C=C(\C(=O)NCCCCCC(=O)NO)c2ccc(F)cc2)ccc1F [Example 45, (2Z)-3-(4-Fluoro-3-methylphenyl)-2-(4-fluorophenyl)-N-[6-(hydroxyamino)-6-oxohexyl]acrylamide] | – | – | – | 9.3 | 16 | 89 | 5 | 6.8 | 73 | > 100 | – | – | – | – | – | – | – | – | –
CSc1ccc(/C=C(\C(=O)NCCCCCC(=O)NOCc2ccccc2)c2ccc(F)cc2)cc1 [Example 51, (2Z)-3-(4-Thiomethylphenyl)-2-(4-fluorophenyl)-N-[6-(O-benzyl hydroxyamino)-6-oxohexyl]acrylamide] | – | – | – | 16.5 | – | – | – | – | – | – | 80 | 30 | > 100 | 35 | 9.6 | 86 | 65 | 10 | 84
